Measurements reported in patent publication US20220411362A1, “DITERPENOID COMPOUNDS THAT ACT ON PROTEIN KINASE C (PKC)” (K-Gen, Inc., priority 2019, published 2022).

Columns and labels:
[1] = system: A549 non-small cell lung cancer cell line; test: Proliferation of A549 (CellTiter Glo); assay type: cell-based; settings: Homo sapiens, A549, 96 h, read-out: IC50 μM (A549 Cell Line)
Description: The diterpenoid compounds were tested in A549, a non-small cell lung cancer cell line harboring a K-Ras activating mutation. Briefly, A549 cells at a density of 1,000 cells/well were seeded in 96-well plates and incubated at 37° C. for 24 hours. A series of different concentrations of compound stocks (500×) were prepared by 3-fold serial dilution in DMSO. These compounds were further diluted in culture media and then added to cells so that the final DMSO concentration was not exceeding 0.25%. After 96 hours of incubation, 50 μL of CellTiter Glo reagent (Promega) was added to each well and luminescence was measured after 10 minutes using EnVision (PerkinElmer). Luminescence from cells treated with DMSO alone was set as Max and % of inhibition was calculated as follows: Inhibition %=(Max−Sample value)/Max×100. Data was analyzed using XL-fit software (ID Business Solutions Ltd.) and IC50, relative IC50, and % of top inhibition was calculated. Some of the compounds in this disclosure were very potent in blocking proliferation of A549 lung cancer cells at low nM range. In addition, potency of inhibiting A549 proliferation correlated well with its binding affinity to PKCs for this series of compounds. In other words, higher affinity binders had stronger inhibitory effects on A549 proliferation. This further support the notion that activation, rather than inhibition, of certain PKC isoforms is required to block proliferation of cancer cells, some of which may harbor K-Ras mutations. This is in sharp contrast to previous literature and common belief that inhibition of PKC is necessary to block cancer cell growth (Kang, 2014, New Journal of Science, 2014:1-36). Data presented here is in agreement with recent findings that many loss-of-function but not gain-of-function mutations of PKC isoforms have been identified in many human cancers (Antal et al., 2015, Cell, 160:489-502).

[2] = biological target: T1, C1b domain of human PKCθ (Homo sapiens, UniProt Q04759); test: Competitive 3H-PDBu binding to C1b domain of PKCθ
T1 construct: Genes encoding C1b domains of human PKCα, δ, ε, θ, and PKD1 (PKCμ) were synthesized; made in house; host or cells: E. coli BL21(DE3)
T1 sequence (Q04759 231-281 limits assumed): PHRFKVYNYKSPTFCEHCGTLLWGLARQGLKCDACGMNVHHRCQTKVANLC
Description: (§1) Compounds described in this disclosure were tested for binding affinity to C1b domain of PKC isoforms. Compound binding affinity to C1b domain of PKC isoforms was derived from competitive binding assay using radioactive tracer ^3H-PDBu and recombinant GST-C1b or full-length of human PKC proteins based on modified procedures from Methods in Molecular Biology, vol.
(§2) Genes encoding C1b domains of human PKCα, δ, ε, θ, and PKD1 (PKCμ) were synthesized and inserted into pGEX-2TK or pGEX-4T1 vectors for expression and production of GST-C1b proteins in E. coli BL21(DE3) via IPTG induction. The target proteins were purified by glutathione sepharose 4B and followed by ion exchange chromatography if needed to achieve purity >70%. Aliquots of the purified proteins were stored at −80 degree for binding assay (storage buffer: 20 mM Tris pH 8.0, 200 mM NaCl, 10% glycerol, 1 mM DTT).
(§3) The plate was incubated at 37° C. on a shaker at 300 rpm for 10 minutes and then put on ice for 20 minutes. […] The bottom of the filter plate was sealed and 50 μL of MicroScint-20 (PerkinElmer) cocktail was added to each well. ^3H-PDBu trapped in each well was counted using PerkinElmer MicroBeta2 Reader. Data were analyzed using GraphPad Prism5 with the model “log(inhibitor) vs. response-variable slope” to fit the IC50, and then IC50 was transformed to Ki using Cheng-Prusoff equation: Ki=IC50/(1+added radio ligand/Kd). Kd is the binding affinity of each protein preparation to ^3H-PDBu, determined experimentally.

[3] = biological target: T2, C1b domain of human PKCα (Homo sapiens, UniProt P17252); test: biochemical; assay type: binding; settings: Ki PKCα, 3H-PDBu competition
T2 construct: Genes encoding C1b domains of human PKCα, δ, ε, θ, and PKD1 (PKCμ) were synthesized; made in house; host or cells: E. coli BL21(DE3)
Description: as §1, §2
The plate was incubated at 37° C. on a shaker at 300 rpm for 10 minutes and then put on ice for 20 minutes. […] The bottom of the filter plate was sealed and 50 μL of MicroScint-20 (PerkinElmer) cocktail was added to each well. ^3H-PDBu trapped in each well was counted using PerkinElmer MicroBeta2 Reader. […] Kd is the binding affinity of each protein preparation to ^3H-PDBu, determined experimentally.

[4] = biological target: T3, C1b domain of human PKCε (Homo sapiens, UniProt Q02156); test: Competitive 3H-PDBu binding to C1b domain of PKCε
T3 construct: Genes encoding C1b domains of human PKCα, δ, ε, θ, and PKD1 (PKCμ) were synthesized; made in house; host or cells: E. coli BL21(DE3)
Description: as §1, §2, §3

[5] = biological target: T4, C1b domain of human PKCδ (Homo sapiens, UniProt Q05655); test: Competitive 3H-PDBu binding to C1b domain of PKCδ; settings: Ki PKCδ, 3H-PDBu competition
T4 construct: Genes encoding C1b domains of human PKCα, δ, ε, θ, and PKD1 (PKCμ) were synthesized; made in house; host or cells: E. coli BL21(DE3)
Description: as §1, §2, §3

[6] = biological target: T5, C1b domain of human PKD1 (PKCμ) (Homo sapiens, UniProt Q15139); test: biochemical; assay type: binding
T5 construct: Genes encoding C1b domains of human PKCα, δ, ε, θ, and PKD1 (PKCμ) were synthesized; made in house; host or cells: E. coli BL21(DE3)
T5 sequence (Q15139 270-320 limits assumed): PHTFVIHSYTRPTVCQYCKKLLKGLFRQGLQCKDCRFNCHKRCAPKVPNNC
Description: as §1, §2, §3

T3 sequence (Q02156 242-292 limits assumed): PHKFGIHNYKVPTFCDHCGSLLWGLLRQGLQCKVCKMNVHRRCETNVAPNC
T4 sequence (Q05655 230-280 limits assumed): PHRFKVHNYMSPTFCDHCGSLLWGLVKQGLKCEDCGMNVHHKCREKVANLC

SMILES | IC50 [1] [µM] | Ki [2] [nM] | Ki [3] [nM] | Ki [4] [nM] | Ki [5] [nM] | Ki [6] [nM]
CC1=C[C@H]2[C@@]3(O)[C@H](C)C[C@]4(O)[C@H]([C@@H]3C=C(CO)C[C@]2(O)C1=O)C4(C)C [Compound K101-C13OH] | > 30 | 2000 to 4000 | > 8000 | 2000 to 4000 | 6000 to 8000 | 4000 to 6000
CC1=C[C@H]2[C@@]3(O)[C@H](C)C[C@]4(OC(=O)C5CC6(CNC6)C5)[C@H]([C@@H]3C=C(CO)C[C@]2(O)C1=O)C4(C)C [Compound K101-C1305] | > 30 | 200 to 400 | > 8000 | 1000 to 2000 | 400 to 800 | 100 to 200
CC1=C[C@H]2[C@@]3(O)[C@H](C)C[C@]4(OC(=O)CC5CC6(CNC6)C5)[C@H]([C@@H]3C=C(CO)C[C@]2(O)C1=O)C4(C)C [Compound K101-C1306] | > 30 | 100 to 200 | 1000 to 2000 | 200 to 400 | 100 to 200 | 1 to 30
CC1=C[C@H]2[C@@]3(O)[C@H](C)C[C@]4(OC(=O)C5CC6(C5)CN(C(=O)OC(C)(C)C)C6)[C@H]([C@@H]3C=C(CO)C[C@]2(O)C1=O)C4(C)C [Compound K101-C1311] | 0.1 to 0.2 | 1 to 30 | 400 to 800 | 30 to 60 | 1 to 30 | < 5
CC1=C[C@H]2[C@@]3(O)[C@H](C)C[C@]4(OC(=O)CC5CC6(C5)CN(C(=O)OC(C)(C)C)C6)[C@H]([C@@H]3C=C(CO)C[C@]2(O)C1=O)C4(C)C [Compound K101-C1312] | 0.03 to 0.06 | 1 to 30 | 100 to 200 | 1 to 30 | 5 to 10 | < 5
CC1=C[C@H]2[C@@]3(O)[C@H](C)C[C@]4(OC(=O)/C=C/c5ccc(C(F)(F)F)cc5)[C@H]([C@@H]3C=C(CO)C[C@]2(O)C1=O)C4(C)C [Compound K101-C1313] | 0.06 to 0.1 | 1 to 30 | 200 to 400 | 1 to 30 | 1 to 30 | < 5
CC1=C[C@H]2[C@@]3(O)[C@H](C)C[C@]4(OC(=O)C[C@@H](N)CCc5ccccc5)[C@H]([C@@H]3C=C(CO)C[C@]2(O)C1=O)C4(C)C [Compound K101-C1350] | 0.6 to 1 |  | 400 to 800 |  | 1 to 30 | < 5
CC1=C[C@H]2[C@@]3(O)[C@H](C)C[C@]4(OC(=O)[C@H](N)CCCc5ccccc5)[C@H]([C@@H]3C=C(CO)C[C@]2(O)C1=O)C4(C)C [Compound K101-C1351] | 0.2 to 0.6 |  | 1000 to 2000 |  | 30 to 60 | 1 to 30
CCCCCCCCCCCCCCCCCCC(CC(=O)O[C@@]12C[C@@H](C)[C@@]3(O)[C@@H](C=C(CO)C[C@]4(O)C(=O)C(C)=C[C@@H]34)[C@@H]1C2(C)C)C(=O)O (stereo partly shown) [Compound K101-C1352] | 5 to 10 |  | 4000 to 6000 |  | 200 to 400 | 200 to 400
CC1=C[C@H]2[C@@]3(O)[C@H](C)C[C@]4(OC(=O)C(Cc5ccccc5)C(=O)O)[C@H]([C@@H]3C=C(CO)C[C@]2(O)C1=O)C4(C)C (stereo partly shown) [Compound K101-C1353] | 1 to 2 |  | > 8000 |  | 400 to 800 | 4000 to 6000
